Measurements as given in patent US12077503B2, “Substituted cyclic amides and their use as herbicides” (FMC CORPORATION, priority 2015, dated 2024).

Columns and labels:
Assay type in all cases: in vivo
Kochia (Kochia scoparia) [1] = test: Test A preemergence; conditions: Preemergence; for Plant response rating, Kochia: 125 g ai/ha, visual injury after approximately 10 d, 0 to 100 scale where 0 is no effect and 100 is complete control; for Kochia plant response rating (0 to 100 scale, 0 is no effect, 100 is complete control): 500 g ai/ha, visual injury approx. 10 d
Excerpt: (§1) Seeds of plant species selected from barnyardgrass (Echinochloa crus-galli), Kochia (Kochia scoparia), ragweed (common ragweed, Ambrosia elatior), ryegrass, Italian (Italian ryegrass, Lolium multiflorum), crabgrass, large (Digitaria sanguinalis), giant foxtail (Setaria faberii), green foxtail (Setaria viridis), morningglory (Ipomoea spp.), pigweed (Amaranthus retroflexus), velvetleaf (Abutilon theophrasti), wheat (Triticum aestivum), and corn (Zea mays) were planted into a blend of loam soil and sand and treated preemergence with a directed soil spray using test chemicals formulated in anon-phytotoxic solvent mixture which included a surfactant.
(§2) At the same time, plants selected from these crop and weed species and also blackgrass (Alopecurus myosuroides), and Galium (catchweed bedstraw, Galium aparine) were planted in pots containing the same blend of loam soil and sand and treated with postemergence applications of test chemicals formulated in the same manner. Plants ranged in height from 2 to 10 cm and were in the one- to two-leaf stage for the postemergence treatment. Treated plants and untreated controls were maintained in a greenhouse for approximately 10 d, after which time all treated plants were compared to untreated controls and visually evaluated for injury. Plant response ratings, summarized in Table A, are based on a 0 to 100 scale where 0 is no effect and 100 is complete control. A dash (-) response means no test result.

[2] = tested on: barnyardgrass (Echinochloa crus-galli); test: Test A preemergence; conditions: Preemergence; for Plant response rating, Barnyardgrass: 125 g ai/ha, visual injury after approximately 10 d, 0 to 100 scale where 0 is no effect and 100 is complete control; for Barnyardgrass plant response rating (0 to 100 scale, 0 is no effect, 100 is complete control): 500 g ai/ha, visual injury approx. 10 d
Excerpt: as §1, §2

[3] = tested on: giant foxtail (Setaria faberii); test: Test A preemergence; conditions: Preemergence; for Plant response rating, Foxtail, Giant: 125 g ai/ha, visual injury after approximately 10 d, 0 to 100 scale where 0 is no effect and 100 is complete control; for Foxtail, Giant plant response rating (0 to 100 scale, 0 is no effect, 100 is complete control): 500 g ai/ha, visual injury approx. 10 d
Excerpt: as §1, §2

[4] = tested on: pigweed (Amaranthus retroflexus); test: Test A preemergence; conditions: Preemergence; for Plant response rating, Pigweed: 125 g ai/ha, visual injury after approximately 10 d, 0 to 100 scale where 0 is no effect and 100 is complete control; for Pigweed plant response rating (0 to 100 scale, 0 is no effect, 100 is complete control): 500 g ai/ha, visual injury approx. 10 d
Excerpt: as §1, §2

[5] = tested on: ragweed (common ragweed, Ambrosia elatior); test: Test A preemergence; conditions: Preemergence; for Plant response rating, Ragweed: 125 g ai/ha, visual injury after approximately 10 d, 0 to 100 scale where 0 is no effect and 100 is complete control; for Ragweed plant response rating (0 to 100 scale, 0 is no effect, 100 is complete control): 500 g ai/ha, visual injury approx. 10 d
Excerpt: as §1, §2

[6] = tested on: ryegrass, Italian (Italian ryegrass, Lolium multiflorum); test: Test A preemergence; conditions: Preemergence; for Plant response rating, Ryegrass, Italian: 125 g ai/ha, visual injury after approximately 10 d, 0 to 100 scale where 0 is no effect and 100 is complete control; for Ryegrass, Italian plant response rating (0 to 100 scale, 0 is no effect, 100 is complete control): 500 g ai/ha, visual injury approx. 10 d
Excerpt: as §1, §2

[7] = tested on: Galium (catchweed bedstraw, Galium aparine); test: Test A postemergence
Excerpt: as §1, §2

Kochia (Kochia scoparia) [8] = test: Test A postemergence
Excerpt: as §1, §2

[9] = tested on: barnyardgrass (Echinochloa crus-galli); test: Test A postemergence
Excerpt: as §1, §2

[10] = tested on: blackgrass (Alopecurus myosuroides); test: Test A postemergence
Excerpt: as §1, §2

corn (Zea mays) = test: Test A postemergence
Excerpt: as §1, §2

[11] = tested on: giant foxtail (Setaria faberii); test: Test A postemergence
Excerpt: as §1, §2

[12] = tested on: pigweed (Amaranthus retroflexus); test: Test A postemergence
Excerpt: as §1, §2

[13] = tested on: ragweed (common ragweed, Ambrosia elatior); test: Test A postemergence
Excerpt: as §1, §2

[14] = tested on: ryegrass, Italian (Italian ryegrass, Lolium multiflorum); test: Test A postemergence
Excerpt: as §1, §2

[15] = tested on: wheat (Triticum aestivum); test: Test A postemergence
Excerpt: as §1, §2

[16] = 125 g ai/ha, postemergence, visual rating after approx. 10 d, 0 to 100 scale (0 no effect, 100 complete control)
[17] = Postemergence, 500 g ai/ha, 0 to 100 scale where 0 is no effect and 100 is complete control

Compound | Plant response rating, Kochia (Kochia (Kochia scoparia) [1]) | Kochia plant response rating (0 to 100 scale, 0 is no effect, 100 is complete control) (Kochia (Kochia scoparia) [1]) | Plant response rating, Barnyardgrass [2] | Barnyardgrass plant response rating (0 to 100 scale, 0 is no effect, 100 is complete control) [2] | Plant response rating, Foxtail, Giant [3] | Foxtail, Giant plant response rating (0 to 100 scale, 0 is no effect, 100 is complete control) [3] | Plant response rating, Pigweed [4] | Pigweed plant response rating (0 to 100 scale, 0 is no effect, 100 is complete control) [4] | Plant response rating, Ragweed [5] | Ragweed plant response rating (0 to 100 scale, 0 is no effect, 100 is complete control) [5] | Plant response rating, Ryegrass, Italian [6] | Ryegrass, Italian plant response rating (0 to 100 scale, 0 is no effect, 100 is complete control) [6] | Plant response rating, Galium [7, 16] | Plant response rating, Galium [7, 17] | Plant response rating, Kochia (Kochia (Kochia scoparia) [8]; [16]) | Plant response rating, Kochia (Kochia (Kochia scoparia) [8]; [17]) | Plant response rating, Barnyardgrass [9, 16] | Plant response rating, Barnyardgrass [9, 17] | Plant response rating, Blackgrass [10, 16] | Plant response rating, Blackgrass [10, 17] | also measured
CN1CC(c2cccc(C(F)(F)F)c2)C(C(=O)Nc2cccc(C#N)c2F)C1=O (stereo not shown) [Compound 576] | 20 | 90 | 90 | 90 | 90 | 90 | 20 | 80 | 20 | 60 | 20 | 30 | 50 | 60 | 30 | 60 | 90 | 90 | 50 | 50 | Plant response rating, Corn (corn (Zea mays); [16]): 80; Plant response rating, Corn (corn (Zea mays); [17]): 80; Plant response rating, Foxtail, Giant [11, 16]: 90; Plant response rating, Foxtail, Giant [11, 17]: 90; Plant response rating, Pigweed [12, 16]: 0; Plant response rating, Pigweed [12, 17]: 50; Plant response rating, Ragweed [13, 16]: 30; Plant response rating, Ragweed [13, 17]: 50; Plant response rating, Ryegrass, Italian [14, 16]: 30; Plant response rating, Ryegrass, Italian [14, 17]: 60; Plant response rating, Wheat [15, 16]: 60; Plant response rating, Wheat [15, 17]: 70
CCc1cccc(C2CN(C)C(=O)C2C(=O)Nc2cccc(F)c2F)c1 (stereo not shown) [Compound 568] | 70 | 80 | 90 | 100 | 100 | 100 | 30 | 60 | 20 | 50 | 70 | 100 | 60 | 60 | 70 | 70 | 100 | 100 | 60 | 90 | Plant response rating, Corn (corn (Zea mays); [16]): 60; Plant response rating, Corn (corn (Zea mays); [17]): 90; Plant response rating, Foxtail, Giant [11, 16]: 90; Plant response rating, Foxtail, Giant [11, 17]: 90; Plant response rating, Pigweed [12, 16]: 30; Plant response rating, Pigweed [12, 17]: 60; Plant response rating, Ragweed [13, 16]: 30; Plant response rating, Ragweed [13, 17]: 30; Plant response rating, Ryegrass, Italian [14, 16]: 70; Plant response rating, Ryegrass, Italian [14, 17]: 90; Plant response rating, Wheat [15, 16]: 30; Plant response rating, Wheat [15, 17]: 70
